Test results reported in patent US5401490A, “Markers of tissue hypoxia” (priority 1989, dated 1995).
Where two headings read alike, the source gives them in different places.

How the values were obtained:
[1] = test system: EMT-6 cells; assay: Hypoxic cell radiosensitizing ability (post-irradiation survival); format: cell-based, mouse
Description: Cell cultures were examined under oxic (air) and hypoxic incubation, with various concentrations of test drug, and at several doses of radiation.

[2] = Tissue distribution of radioactivity after intravenous injection; format: in vivo, BALB/C mice; settings: mouse, iv, i.v.; for tissue uptake at 0.5 h: 0.50 h
Source text: Tables 1 and 2 show the percent of injected IAZG and IAZA respectively per gram of wet tissue for selected tissues excised from BALB/C mice bearing EMT-6 tumors. This tumor model is known to have a high hypoxic fraction (0.33) (16). […] Hepatobiliary excretion may play a role in blood clearance as evidenced by elevated liver radioactivity and the appearance of activity in the intestine. Some oxidative or reductive metabolites of the 2-nitroimidazoles may also become bound to liver tissue, as was postulated in an in vivo study with ^14 C-MISO (6). This supposition is supported by the persistence of liver radioactivity at longer time periods. […] At 8 and 24 hours thyroid levels of IAZG are 7.2 and 30.9% of the total body activity and for IAZA they are 7.9 and 33.8% of total body activity. EXAMPLE 11 TISSUE DISTRIBUTION AND EXCRETION Tumor propagation of EMT-6 tumors in BALB/C mice was accomplished by subcutaneous injection of a cell suspension (10^5 cells in 0.1 mL) as described previously (10). Tumors reached about 10 mm in diameter (≈0.5 g) at 12 to 14 days, at which time each animal was given a bolus intravenous injection of ^125 I-labelled test drug via the tail vein (40 to 60 kBq in 0.1 mL). At set time periods the animals were asphyxiated with CO2 and exsanguinated via cardiac puncture. Tissues were dissected, weighed wet into vials and counted for ^125 I-activity. Whole-body activity was determined by summation of total activity in tissues and in residual carcass, and blood activity was determined from the blood aliquot, assuming blood to be 6.5% of the total body weight. EXAMPLE 12 Male BALB/c mice (20-25 g) were inoculated subcutaneously in the left flank with a suspension of murine EMT-6 cells (10^5 cells in 0.1 mL) (14). After 12 to 14 days, when the tumors reached the desired size (8-10 mm diameter), each mouse received a single intravenous (iv) injection of ^125 I-IAZA (59 kBq in 0.1 mL). […] Heart, lung, liver, spleen, muscle, bone, thyroid, kidney, stomach, small intestine, tail, tumor and skin were removed upon necropsy, weighed and analyzed for ^125 I using a Beckman Model 8000 gamma scintillation counter. The remaining carcass mass was also weighed and radioassayed.

[3] = test system: EMT-6 tumor tissue; assay: Imaging study using ^125 I-IAZA; format: in vivo
[4] = Long term storage in solution; format: physicochemical
Source text: Both IAZA and IAZG are synthesised, in high yield, from commercial precursors (FIG. 1) and undergo high-yield isotope exchange reactions with radioiodine to produce the required radiolabelled test compounds. […] Therefore, the compounds were stored as a dry residue in multidose vials under refrigeration and were reconstituted with the appropriate solvent just prior to use. IAZP is similarly synthesised. It will be known to those skilled in the art that other radio halogens may be similarly employed in the exchange reaction.

[5] = blood, read-out: Percent of Injected Dose per Gram, Blood
[6] = bone, read-out: Percent of Injected Dose per Gram, Bone
[7] = carcass, read-out: Percent of Injected Dose per Gram, Carcass
[8] = heart, read-out: Percent of Injected Dose per Gram, Heart
[9] = intestine, read-out: Percent of Injected Dose per Gram, Intestine
[10] = kidney, read-out: Percent of Injected Dose per Gram, Kidney
[11] = liver, read-out: Percent of Injected Dose per Gram, Liver
[12] = lung, read-out: Percent of Injected Dose per Gram, Lung
[13] = muscle, read-out: Percent of Injected Dose per Gram, Muscle
[14] = spleen, read-out: Percent of Injected Dose per Gram, Spleen
[15] = stomach, read-out: Percent of Injected Dose per Gram, Stomach
[16] = tumor, read-out: Percent of Injected Dose per Gram, Tumor

O=[N+]([O-])c1nccn1[C@@H]1O[C@H](CI)[C@@H](O)[C@@H]1O [IAZA, 1-(5-iodo-5-deoxy-β-D-arabino-furanosyl)-2-nitroimidazole]
sensitizer enhancement ratio (SER) ([1]; 50 μM, 90% cell kill, hypoxic): ~1.4
sensitisation to lethal effects of ionising radiation ([1]; in words): sensitise these cells to the lethal effects of ionising radiation
tissue uptake at 0.25 h [2, 5]: 2.63 ± 0.28 %ID/g
tissue uptake at 0.5 h [2, 5]: 2.17 ± 0.85 %ID/g
tissue uptake at 1 h [2, 5]: 1.84 ± 0.72 %ID/g
tissue uptake at 2 h [2, 5]: 0.91 ± 1.56 %ID/g
tissue uptake at 4 h [2, 5]: 0.45 ± 1.24 %ID/g
tissue uptake at 8 h [2, 5]: 0.14 ± 0.07 %ID/g
tissue uptake at 24 h [2, 5]: 0.037 ± 0.047 %ID/g
tissue uptake at 0.25 h [2, 6]: 1.31 ± 0.18 %ID/g
tissue uptake at 0.5 h [2, 6]: 1.37 ± 0.57 %ID/g
tissue uptake at 1 h [2, 6]: 1.15 ± 0.52 %ID/g
tissue uptake at 2 h [2, 6]: 0.58 ± 0.26 %ID/g
tissue uptake at 4 h [2, 6]: 0.27 ± 0.09 %ID/g
tissue uptake at 8 h [2, 6]: 0.08 ± 0.03 %ID/g
tissue uptake at 24 h [2, 6]: 0.022 ± 0.03 %ID/g
tissue uptake at 0.25 h [2, 7]: 2.68 ± 0.44 %ID/g
tissue uptake at 0.5 h [2, 7]: 2.55 ± 0.37 %ID/g
tissue uptake at 1 h [2, 7]: 2.23 ± 0.91 %ID/g
tissue uptake at 2 h [2, 7]: 1.46 ± 0.29 %ID/g
tissue uptake at 4 h [2, 7]: 0.89 ± 0.52 %ID/g
tissue uptake at 8 h [2, 7]: 0.28 ± 0.12 %ID/g
tissue uptake at 24 h [2, 7]: 0.038 ± 0.016 %ID/g
tissue uptake at 0.25 h [2, 8]: 4.69 ± 0.91 %ID/g
tissue uptake at 0.5 h [2, 8]: 3.56 ± 0.66 %ID/g
tissue uptake at 1 h [2, 8]: 2.78 ± 1.3 %ID/g
tissue uptake at 2 h [2, 8]: 1.03 ± 0.43 %ID/g
tissue uptake at 4 h [2, 8]: 0.32 ± 0.24 %ID/g
tissue uptake at 8 h [2, 8]: 0.22 ± 0.05 %ID/g
tissue uptake at 24 h [2, 8]: 0.042 ± 0.017 %ID/g
tissue uptake at 0.25 h [2, 9]: 5.42 ± 1.03 %ID/g
tissue uptake at 0.5 h [2, 9]: 4.44 ± 0.62 %ID/g
tissue uptake at 1 h [2, 9]: 4.63 ± 1.92 %ID/g
tissue uptake at 2 h [2, 9]: 1.73 ± 0.55 %ID/g
tissue uptake at 4 h [2, 9]: 0.81 ± 0.46 %ID/g
tissue uptake at 8 h [2, 9]: 0.77 ± 0.36 %ID/g
tissue uptake at 24 h [2, 9]: 0.041 ± 0.016 %ID/g
tissue uptake at 0.25 h [2, 10]: 6.56 ± 0.63 %ID/g
tissue uptake at 0.5 h [2, 10]: 5.67 ± 0.95 %ID/g
tissue uptake at 1 h [2, 10]: 4.38 ± 1.25 %ID/g
tissue uptake at 2 h [2, 10]: 1.8 ± 0.61 %ID/g
tissue uptake at 4 h [2, 10]: 0.66 ± 0.39 %ID/g
tissue uptake at 8 h [2, 10]: 0.34 ± 0.06 %ID/g
tissue uptake at 24 h [2, 10]: 0.52 ± 0.004 %ID/g
tissue uptake at 0.25 h [2, 11]: 8.65 ± 1.02 %ID/g
tissue uptake at 0.5 h [2, 11]: 7.14 ± 1.13 %ID/g
tissue uptake at 1 h [2, 11]: 5.63 ± 2.27 %ID/g
tissue uptake at 2 h [2, 11]: 2.18 ± 0.8 %ID/g
tissue uptake at 4 h [2, 11]: 0.95 ± 0.58 %ID/g
tissue uptake at 8 h [2, 11]: 0.47 ± 0.1 %ID/g
tissue uptake at 24 h [2, 11]: 0.098 ± 0.008 %ID/g
tissue uptake at 0.25 h [2, 12]: 4.61 ± 0.82 %ID/g
tissue uptake at 0.5 h [2, 12]: 3.77 ± 0.67 %ID/g
tissue uptake at 1 h [2, 12]: 2.99 ± 1.41 %ID/g
tissue uptake at 2 h [2, 12]: 1.15 ± 0.38 %ID/g
tissue uptake at 4 h [2, 12]: 0.45 ± 0.3 %ID/g
tissue uptake at 8 h [2, 12]: 0.33 ± 0.07 %ID/g
tissue uptake at 24 h [2, 12]: 0.037 ± 0.008 %ID/g
tissue uptake at 0.25 h [2, 13]: 3.09 ± 0.67 %ID/g
tissue uptake at 0.5 h [2, 13]: 2.77 ± 0.54 %ID/g
tissue uptake at 1 h [2, 13]: 2.19 ± 1.03 %ID/g
tissue uptake at 2 h [2, 13]: 0.69 ± 0.29 %ID/g
tissue uptake at 4 h [2, 13]: 0.24 ± 0.12 %ID/g
tissue uptake at 8 h [2, 13]: 0.36 ± 0.31 %ID/g
tissue uptake at 24 h [2, 13]: 0.02 ± 0.004 %ID/g
tissue uptake at 0.25 h [2, 14]: 3.57 ± 0.67 %ID/g
tissue uptake at 0.5 h [2, 14]: 3 ± 0.62 %ID/g
tissue uptake at 1 h [2, 14]: 2.48 ± 1.25 %ID/g
tissue uptake at 2 h [2, 14]: 0.93 ± 0.37 %ID/g
tissue uptake at 4 h [2, 14]: 0.35 ± 0.2 %ID/g
tissue uptake at 8 h [2, 14]: 0.18 ± 0.04 %ID/g
tissue uptake at 24 h [2, 14]: 0.036 ± 0.034 %ID/g
tissue uptake at 0.25 h [2, 15]: 4.36 ± 0.7 %ID/g
tissue uptake at 0.5 h [2, 15]: 4.75 ± 1.05 %ID/g
tissue uptake at 1 h [2, 15]: 3.95 ± 0.93 %ID/g
tissue uptake at 2 h [2, 15]: 3.3 ± 0.93 %ID/g
tissue uptake at 4 h [2, 15]: 1.81 ± 1.6 %ID/g
tissue uptake at 8 h [2, 15]: 0.87 ± 0.54 %ID/g
tissue uptake at 24 h [2, 15]: 0.067 ± 0.014 %ID/g
tissue uptake at 0.25 h [2, 16]: 2.55 ± 0.86 %ID/g
tissue uptake at 0.5 h [2, 16]: 3.48 ± 0.46 %ID/g
tissue uptake at 1 h [2, 16]: 2.7 ± 0.39 %ID/g
tissue uptake at 2 h [2, 16]: 2.55 ± 1.65 %ID/g
tissue uptake at 4 h [2, 16]: 2.08 ± 0.27 %ID/g
tissue uptake at 8 h [2, 16]: 1.22 ± 0.24 %ID/g
tissue uptake at 24 h [2, 16]: 0.206 ± 0.23 %ID/g
delineation of tumor tissue in imaging [3]: clearly delineated from surrounding tissue
stability on long term storage in solution [4]: some decomposition of the pure compounds
